Patent publication US8044211B2 (Chroma Therapeutics Ltd., priority 2006, dated 2011)

Experiments:
p38 MAP Kinase a = biological target: T1, p38 MAP Kinase a (Homo sapiens, UniProt Q16539); test: p38 MAP Kinase activity, radiometric filter-binding assay (Upstate); assay type: biochemical; conditions: IC50 range; ATP at or close to Km; read-out: Inhibitor activity versus p38 MAPKa
T1 construct: purchased Upstate (Dundee UK)
In short: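 Human p38 MAP kinase α (5-10 mU) with 0.33 mg/mL myelin basic protein, 25 mM Tris pH 7.5, 0.002 mM EGTA, 10 mM Mg acetate and [γ-33P]ATP at or near Km; 40 min at RT. Phosphoric acid stop, P30 filter binding and scintillation counting; IC50 from 9-step ⅓-log dilutions from 10 μM top concentration, duplicates.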

THP-1 TNFα release = test: LPS-stimulation of THP-1 cells, TNF-α by ELISA; assay type: cell-based; conditions: Homo sapiens, THP-1; IC50 range; LPS 1 μg/ml, 6 hrs; read-out: Inhibitor activity versus THP-1 TNFα release
In short: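 THP-1 cells (4×10^4/well) rested 16 h, preincubated 2 h with inhibitor, then stimulated with 1 μg/ml E. coli LPS for 6 h at 37 °C, 5% CO2. TNF-α quantified in cell-free supernatants by sandwich ELISA.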

[1] = tested on: human whole blood TNFα release; test: LPS-stimulation of human whole blood, TNF-α by ELISA; assay type: cell-based; conditions: IC50 range, LPS 100 ng/ml, 6 hrs, read-out: Inhibitor activity versus human whole blood TNFα release
Experimental: Whole blood was taken by venous puncture using heparinised vacutainers (Becton Dickinson) and diluted in an equal volume of RPMI 1640 tissue culture media (Sigma). 100 μl was plated in V-bottomed 96 well tissue culture treated plates. 2 hrs after the addition of the inhibitor in 100 μl of RPMI 1640 media, the blood was stimulated with LPS (E. coli strain 005:B5, Sigma) at a final concentration of 100 ng/ml and incubated at 37° C. in 5% CO2 for 6 hrs. TNF-α levels were measured from cell-free supernatants by sandwich ELISA (R&D Systems #QTA00B)

T1 sequence (Q16539 whole entry): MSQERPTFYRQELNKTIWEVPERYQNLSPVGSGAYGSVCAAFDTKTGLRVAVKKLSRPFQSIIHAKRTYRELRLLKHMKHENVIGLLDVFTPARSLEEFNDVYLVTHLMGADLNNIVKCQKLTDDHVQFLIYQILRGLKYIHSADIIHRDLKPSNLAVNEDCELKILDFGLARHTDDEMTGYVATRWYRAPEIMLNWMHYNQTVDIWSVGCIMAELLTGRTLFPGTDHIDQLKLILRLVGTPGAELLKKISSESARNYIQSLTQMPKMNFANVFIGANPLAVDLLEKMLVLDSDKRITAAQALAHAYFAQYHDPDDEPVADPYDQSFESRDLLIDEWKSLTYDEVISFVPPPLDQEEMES

Compound	IC50 (p38 MAP Kinase a)	IC50 (THP-1 TNFα release)	IC50 [1]
CC(C)C[C@H](NCCc1ccc(-n2c(N)c(C(=O)c3ccc(F)cc3F)ccc2=O)cc1)C(=O)OC1CCCC1 [Example 59, Cyclopentyl N-[2-(4-{6-amino-5-[(2,4-difluorophenyl)carbonyl]-2-oxopyridin-1(2H)-yl}phenyl)ethyl]-L-leucinate]	100 to 1000 nM	< 100 nM	100 to 1000 nM
CC(C)C[C@H](NCCCc1ccc(-n2c(N)c(C(=O)c3ccc(F)cc3)ccc2=O)cc1)C(=O)OC1CCCC1 [Example 67, Cyclopentyl N-[3-(4-{6-amino-5-[(4-fluorophenyl)carbonyl]-2-oxopyridin-1(2H)-yl}phenyl)propyl]-L-leucinate]	100 to 1000 nM	100 to 1000 nM	> 1000 nM
